Measured values: ChEMBL document CHEMBL5143592, “Angiogenesis-Inhibitory Piperidine Alkaloids from the Leaves of Microcos paniculata” (J Nat Prod, 2022)

Experiments:
[1] = Cytotoxicity against HUVEC cells assessed as cell viability incubated for 24 hrs by MTT assay; type: toxicity, cell-based; conditions: human, read-out: Activity
HUVEC = assay: Anti-angiogenesis activity against HUVEC cells assessed as inhibition of tube formation at 2.5 to 20 uM measured after 3 hrs by fluorescence microscopic analysis; type: functional, cell-based; conditions: Homo sapiens, dose 2.5-20 µM, DDE = dose-dependent effect

CCCC[C@@H](O)[C@H](O)/C=C/C=C/[C@@H]1CC[C@@H](O)[C@H](C)N1
viability at 24 h [1]: ≥ 90%
Activity (HUVEC): Dde
